Assay results: patent US7838463B2, “Safeners based on acrylic-aliphatic carboxylic acid derivatives” (Bayer CropScience AG, priority 2003, dated 2010)

Tests used:
Format in all cases: in vivo
Chenopodium album = test: Post-emergence application of herbicide H3 (glufosinate-ammonium) and safener by the tank mix method: herbicidal action; settings: safener 250 g a.i./ha + herbicide H3 (glufosinate-ammonium) 250 g a.i./ha, post-emergence tank mix; four weeks
From the text: Seeds of various crop plants and weed species were sown in sandy loam soil in round plastic pots of a diameter of 13 cm and covered with a layer of sandy loam of a thickness of about 1 cm. The pots were placed in a greenhouse under favorable growth conditions for a duration of about two to three weeks, allowing the plants to reach a growth stage of 2 to 4 leaves. The herbicides, in the form of liquid (for example emulsion concentrates, aqueous solutions) or dry (for example water-dispersible powders) formulations, were diluted with deionized water to the required concentrations and applied to the green parts of the plants and the uncovered part of the surface of the soil with a spray bar using a water application rate of 300 liters per hectare. In the experiment shown below, the safeners were used as 20 percent strength water-dispersible powders and the herbicide glufosinate-ammonium as a commercial 20 percent strength aqueous surfactant-containing solution (results see table 1.2.2).
The pots were placed in a greenhouse under favorable growth conditions. Visual scoring of the herbicidal action was carried out four weeks after the herbicidal application. Evaluation was carried out on a percentage basis by comparison with untreated control plants (0%=no noticeable effect compared with the untreated plant, 100%=treated plant dies).

[1] = tested on: Zea mays (corn), cv. 'Lorenzo'; test: Post-emergence application of herbicide H2 (foramsulfuron) and safener by the tank mix method: crop damage; settings: safener 250 g a.i./ha + herbicide H2 (foramsulfuron) 40 g a.i./ha, post-emergence tank mix; for Safener action as % damage reduction in crop plants: ZEAMA, versus herbicide alone; for % damage in ZEAMA: visual scoring four weeks after application
From the text: (§1) Seeds of various crop plants and weed species were sown in sandy loam soil in round plastic pots of a diameter of 13 cm and covered with a layer of sandy loam of a thickness of about 1 cm. The pots were placed in a greenhouse under favorable growth conditions for a period of about two to three weeks, allowing the plants to reach a growth stage of 2 to 4 leaves. The herbicides in the form of liquid (for example emulsion concentrates) or dry (for example water-dispersible powders) formulations were mixed with a standard additive (based on rapeseed oil methyl ester), diluted with deionized water to the required concentrations and applied to the green parts of the plants and the uncovered part of the soil surface with a spray bar using a water application rate of 300 liters per hectare. In the experiment shown below, safener and the herbicide foramsulfuron were in each case used as 20 percent strength water-dispersible powder (results see table 1.2.1). The pots were placed in a greenhouse under favorable growth conditions. Visual scoring of the herbicidal action was carried out four weeks after the herbicide application. Evaluation was carried out on a percentage basis by comparison with untreated control plants (0%=no noticeable effect compared with the untreated plant, 100%=treated plant dies).

Amaranthus retroflexus = test: Post-emergence application of herbicide H2 (foramsulfuron) and safener by the tank mix method: herbicidal action; settings: safener 250 g a.i./ha + herbicide H2 (foramsulfuron) 40 g a.i./ha, post-emergence tank mix; four weeks
From the text: as §1

Setaria viridis = test: as above; settings: safener 250 g a.i./ha + herbicide H2 (foramsulfuron) 40 g a.i./ha, post-emergence tank mix; four weeks
From the text: as §1

SMILES | Herbicidal action as % damage in CHEAL (Chenopodium album) [%] | Safener action as % damage reduction in crop plants [1] [%] | % damage in ZEAMA [1] [%] | Herbicidal action as % damage in AMARE (Amaranthus retroflexus) [%] | Herbicidal action as % damage in SETVI (Setaria viridis) [%]
O=C(O)C=Cc1ccccc1O [Comp. 17, 2-hydroxycinnamic acid] | 97 | 78 | 8 | 94 | 98
O=C(O)C=Cc1ccc(Cl)cc1Cl [Comp. 155, 2,4-dichlorocinnamic acid] | 92 | 83 | 6 | 98 | 95
